Our source for the melting point values is a melting point compilation (Tetko et al.; mined from patent text by program, amines drawn as free bases though some values may be those of a salt).

In general, melting point refers to the temperature of the solid-liquid transition. Compound `O=C(O)C1CCN(Cc2cc(Br)cc3[nH]c(=O)c(=O)[nH]c23)CC1` showed a melting point greater than 300 °C.

`COc1ccc(OC)c2c1CCC(OC(C)=O)(C(C)=O)C2` (centres undefined) came in with a melting point of 120 to 122 °C.

`Cn1c(-c2cc(C(C)(C)C)c(O)c(C(C)(C)C)c2)n[nH]c1=O` showed a melting point of 308 to 312 °C.

Take `N#CC(C#N)=CN(N=C(C#N)C#N)c1ccc(F)cc1F`: the melting point lay in the range of 140 to 142 °C.

Compound `CN(C)C(=O)Nc1ccc(Oc2ccc(C(F)(F)F)cc2Cl)cc1` registered a melting point of 140 °C.

As for `O=C(c1ccccc1)N1CCCC(c2nc(-c3ccc(F)cc3)no2)C1` (centres undefined), the melting point fell in the range of 82 to 83 °C.

`COCOc1ccc(CCCOc2nn(C)cc2CC(=O)O)c(Oc2ncc(C(F)(F)F)cc2Cl)c1` came in with a melting point of 122 to 123 °C.

Consider `NS(=O)(=O)c1nnc(NC(=O)c2cnn3c(C(F)(F)F)cc(-c4ccc(C(F)(F)F)cc4)nc23)s1`, for which the melting point turned out to be 280 °C.

As to `CC(C)c1cccc(C(C)C)c1NC(=O)CNC(c1ccccc1)c1cccc(C(=O)O)c1` (centres undefined), the melting point was in the range of 190 to 191 °C.

Consider `COc1ccccc1C(=O)Nc1nc2ccccc2s1`, for which the melting point lay in the range of 196 to 197 °C.

As to `CNC(=O)NS(=O)(=O)c1cc(CCNC(=O)/C=C/c2cccs2)ccc1OCCOC`, the melting point amounted to 99 °C.

`CCCCCCCCSC(=O)CS(=O)(=O)Nc1c(C(C)C)cccc1C(C)C` came in with a melting point of 51 to 52 °C.

Compound `CC1(C)OCc2cc(C(O)c3c[nH]cn3)ccc2O1` (centres undefined) came in with a melting point of 96 °C.

Compound `COc1ccc([C@H](O)[C@@H](Cc2ccc(C(F)(F)F)cc2)NC(=O)c2ccc(F)c3ccccc23)cc1` (racemic) gave a melting point of 184 to 185 °C.

`CC(CO)n1cnc2c(I)ncnc21` (centres undefined) gave a melting point of 193 to 194 °C.

On to `O=c1nc(-c2cccc(-c3ccco3)n2)sc2ccccc12`, for which the melting point worked out at 218 °C.

For the compound `CCCCN(CCCC)c1ccc(C=CC=CC2=C(C#N)C(=C(C#N)C#N)OC2(C)C)c(OC)c1`, the melting point lay within 181 to 184 °C.

In the case of `CC(C)(C)OC(=O)N1CCN(c2ccc(OCC3(C)Cn4cc([N+](=O)[O-])nc4O3)cc2)CC1` (centres undefined), the melting point is 212 to 214 °C.

Regarding `Cc1cc(C(=O)NCc2ccc(Br)cc2F)c(OCC(=O)O)cc1F`, the melting point amounted to 169 °C.

`CCN(CC)C(=O)COc1ccn2nc(-c3ccccc3)c(-c3ccc(=O)n(C(C)C)n3)c2c1` registered a melting point of 125 to 126 °C.

With `CC(C)c1nc(COC(N)=O)n(CCOC(N)=O)c1Sc1cc(Cl)cc(Cl)c1`, the melting point was 159 to 161 °C.

For the compound `COc1cc(-c2ccc(O)cc2)ccc1C=O`, the melting point was in the range of 159 to 161 °C.

For `N#Cc1ccc(N=C=O)cc1Cl`, the melting point was 198 to 201 °C.

`Cc1ccc2c(CCNCC#N)c[nH]c2c1` came in with a melting point of 92 °C.

In the case of `COc1cc(OCc2ccccn2)ccc1/C=C/c1cc(/C=C/c2ccc3ccn(S(C)(=O)=O)c3c2)n[nH]1`, the melting point fell in the range of 212 to 214 °C.

Compound `CN(c1ccc(OCCCCBr)cc1)S(=O)(=O)c1ccc(C(F)(F)F)cc1` displayed a melting point of 91 to 92 °C.

The compound `N=C(Cc1nc2cnc3ccc(Cl)cc3c2n1-c1ccccc1Cl)NO` came in with a melting point of 114 °C.

In turn, `O=C(O)Cc1ccccc1OCCn1ccnc1` yielded a melting point of 146 to 147 °C.

Take `O=C(Nc1ccc(Oc2ccnc(NCCN3CCCC3)n2)c2ccccc12)c1cc(F)cc(N2CCCCC2)c1`: the melting point lay in the range of 92 to 94 °C.

`CS(=O)(=O)c1ccc([C@@H](CC2CCCC2)C(=O)Nc2nc3ccccc3s2)cc1` registered a melting point of 100 to 105 °C.

Take `O=c1c2cccnc2n(-c2cccc(Cl)c2)c2ccsc12`: the melting point was in the range of 264 to 267 °C.

Compound `Cn1c2ccc(Cl)cc2c(=O)n2nc(C(=O)O)cc12` gave a melting point of 280 °C.

The compound `COc1cc(OC)c2c(=O)[nH]c(-c3ccc(OCCNC(C)C)c(-c4ccc(S(C)(=O)=O)cc4C)n3)nc2c1` gave a melting point of 202 to 203 °C.

The compound `Cn1cc(C(=O)Cl)c([N+](=O)[O-])n1` came in with a melting point of 68 to 70 °C.

For the compound `COC1(c2ccco2)CC2=C(C=C1C(F)(F)F)N(C(=O)Nc1cccnc1)CC2` (centres undefined), the melting point was in the range of 92 to 94 °C.

The compound `O=C(O)CC1c2cc([N+](=O)[O-])ccc2CCN1C(=O)OCc1ccccc1` (centres undefined) gave a melting point of 160 to 162 °C.

Consider `Cc1cc(N2CC=C(C(N)=O)CC2)c2c(C)c(C)n(-c3ccc(Cl)cc3Cl)c2n1`, for which the melting point was in the range of 265 to 267 °C.

For `COc1ccc(S(=O)(=O)N2CC3CCC(CC3)C2)c2ccccc12`, the melting point lay within 168 to 170 °C.

Compound `O=C(O)c1cnc2cc(I)ccc2n1` returned a melting point of 242 to 244 °C.

`Cc1ccc(-c2nc(C)c(-c3ccnc(Nc4ccc(N5CCOCC5)cc4)n3)s2)cn1` returned a melting point of 244 to 245 °C.

Consider `CCOC(=O)C(C(C)=O)C1NC(=O)c2sccc2-n2cccc21` (centres undefined), for which the melting point is 196 °C.

Compound `Cc1ccc(S(=O)(=O)NCC(CC(=O)Nc2ccc(C(=O)O)cc2)c2ccccc2)cc1` (centres undefined) showed a melting point of 225 to 227 °C.

For `COc1ccc(-c2cnn(-c3cccc(C)n3)c(=O)c2)cc1`, the melting point is 167 to 168 °C.

With `CCOC(=O)c1nn(-c2cccc(Cl)c2)c(=O)c2c1c1ccc(Cl)cc1n2C`, the melting point was 236 to 238 °C.

Consider `Cc1c(C(=O)O)ccc(S(C)(=O)=O)c1S(C)(=O)=O`, for which the melting point is 192 to 198 °C.

In turn, `Cc1n[nH]c2c1C[C@@H]1CN(C)CC[C@H]1C2` (relative stereo) displayed a melting point of 160 to 162 °C.

Compound `CC(=O)OC1NC(=O)C1C(C)O[Si](C)(C)C(C)(C)C(C)C` (centres undefined) gave a melting point of 80 to 81 °C.

Turning to `COc1nc(C)nc(NC(=O)NS(=O)(=O)c2cccc3c2OS(=O)(=O)C(C)=C3)n1`, the melting point was 203 to 205 °C.

`CCOC(=O)N1CCC(N2CCN(CC(=O)Nc3c(C)cccc3C)CC2)CC1Cc1ccc(Cl)c(Cl)c1` (centres undefined) registered a melting point of 101 °C.

With `CCN1c2ncc(CCc3ccc(N(C)S(C)(=O)=O)cc3)cc2C(=O)N(C)c2ccc(Cl)nc21`, the melting point fell in the range of 196 to 198 °C.

`CCn1c(C)c(C2(c3c(-c4ccccc4)[nH]c4ccccc34)OC(=O)C(Cl)=C2Cl)c2ccccc21` (centres undefined) returned a melting point of 225 °C.

Turning to `Cc1ccc(C(=O)NC(NC(=NC#N)Nc2cccnc2)C(C)(C)C)cc1` (single isomer, unassigned; (+)), the melting point lay in the range of 188 to 189 °C.

In turn, `Cn1ncnc1COc1nn2c(-c3ccccc3F)nncc2c1I` registered a melting point of 218 to 219 °C.

The compound `CC(C)c1[nH]n(-c2c(Cl)cncc2Cl)c2nc(Cc3ccc(CN4CCCC4)c(O)c3)nc(=O)c1-2` gave a melting point of 209 °C.

As to `COc1ccc(CN(CCCC#N)Cc2ccc(OC)cc2)cc1`, the melting point lay within 56 to 58 °C.

Compound `O=C(O)c1ccccc1NCCC=C1c2ccccc2CCc2ccccc21` came in with a melting point of 164 to 167 °C.

Turning to `NCc1cc(Cl)c(NC(=O)CN2CCN(CCCCC(c3ccc(F)cc3)c3ccc(F)cc3)CC2C(N)=O)c(Cl)c1` (centres undefined), the melting point was found to be 161 °C.

Compound `CCOC(=O)NN(CCO)c1ccc(-c2ccc(Cl)cc2)nn1` gave a melting point of 152 to 154 °C.

Compound `O=C1c2c(O)ccc(O)c2C(=O)c2c(NCCN3CCOC34CCCCC4)ccc(NCCN3CCOC34CCCCC4)c21` showed a melting point of 218 to 225 °C.

For `COCOc1ccccc1-c1cc(-c2cccc([N+](=O)[O-])c2)c(C#N)c(N)n1`, the melting point is 169 to 171 °C.

The compound `CC#CCOc1ccc(SC(C(=O)NO)C2CCCCC2)cc1` (centres undefined) yielded a melting point of 163 °C.

In the case of `COc1nc(C)c(C)cc1NC(=S)N1CCN(c2cc(F)cc(F)c2)CC1`, the melting point fell in the range of 60 to 62 °C.

As for `O=C1CCc2cc(Cl)ccc2C1`, the melting point is 121 to 122 °C.

The compound `O=C1Nc2c(F)cc(F)cc2C1c1ncnc2c1cnn2C1CCCC1` (centres undefined) yielded a melting point greater than 300 °C.

For `N#Cc1ccc(NC(=O)c2cc(-c3ccc(F)cc3F)ccc2O)cc1`, the melting point fell in the range of 189 to 190 °C.

With `CCN(c1ccc(OC)cc1)c1cc(NC)nc(C)n1`, the melting point was in the range of 116 to 118 °C.

Consider `C[C@@](O)(C(=O)N1CCC(C(=O)c2ccc(F)cc2)CC1)C(F)(F)F`, for which the melting point is 78 to 79 °C.

Turning to `CS(=O)CCCn1c(=N)sc2cc(OC(F)(F)F)ccc21` (racemic), the melting point turned out to be 114 °C.

Compound `O=c1oc2cc(O)cc(O)c2c(O)c1C1c2ccccc2Oc2c1c(=O)oc1cc(O)cc(O)c21` (centres undefined) gave a melting point greater than 300 °C.

`CCOc1cccc(-c2cc3n(n2)-c2ccccc2CC3)c1` showed a melting point of 99 to 100 °C.

The compound `Cc1nc(C=Cc2nc3ccc(F)cc3c(=O)n2-c2ccccc2Cl)cs1` had a melting point of 231 to 232 °C.

With `Cc1ccc2[nH]c3c(cc(-c4ccccc4Nc4ccccc4)c(=O)n3C)c2c1`, the melting point lay in the range of 188 to 190 °C.

For `C=CC(=O)N1c2ccccc2CC1C(=O)O` (centres undefined), the melting point is 158 to 160 °C.

In turn, `CC(=O)c1ccc2c(c1)Sc1ccccc1C=C2` registered a melting point of 82 to 84 °C.

As for `COC(=O)NN(C(=O)Cl)c1ccccc1OCCSC`, the melting point was 55 to 57 °C.

Compound `c1ccc(-c2ccc(-n3c4ccccc4c4c3ccc3c5ccccc5n(-c5ccc(-c6ccccc6)cc5)c34)cc2)cc1` registered a melting point of 315 °C.

`Cc1cc(C)c2ccc(NC(=O)Nc3ccccc3CCc3cc(C(C)(C)C)c(O)c(C(C)(C)C)c3)nc2n1` had a melting point of 235 to 237 °C.

Turning to `OC[C@@H](O)CNCc1ccccc1`, the melting point was found to be 63 °C.

As for `CS(=O)(=O)c1cc2[nH]c(=O)c(=O)n(C3CCCCC3)c2cc1-n1cccc1`, the melting point is greater than 280 °C.

As to `CCOC(=O)c1cn(C)c2cnc3c(F)c(Cl)c(N4CCN(c5ccc(C)c(F)c5)CC4)cc3c2c1=O`, the melting point was 350 °C.

On to `CCOC(=O)c1cccc(Cn2cnc3ccccc32)c1`, for which the melting point lay in the range of 68 to 70 °C.

Consider `Cc1cn2c(n1)Cc1cc3c(cc1C(c1ccc(N)cc1)=N2)OCO3`, for which the melting point is 165 to 166 °C.

In the case of `CCOC(=O)c1ccc2c(C=C[N+](=O)[O-])c[nH]c2c1`, the melting point stood at 241 °C.

Regarding `COc1ccc(S(=O)(=O)OCC(=O)CC(C)C2CCCCC2)cc1` (centres undefined), the melting point fell in the range of 52 to 53 °C.
